# Experimental data published in ChEMBL document CHEMBL6109152, “Harnessing the SPOP E3 Ubiquitin Ligase via a Bridged Proteolysis Targeting Chimera (PROTAC) Strategy for Targeted Protein Degradation” (J Med Chem, 2025).
# The source made the active and inactive calls. No cut-off for these calls is given here.
# How the values were obtained:
# [1] = target: T1, Speckle-type POZ protein-Bromodomain-containing protein 4 (Homo sapiens, UniProt O60885+O43791); test: PROTAC activity at SPOP/BRD4-L in human HT-29 cells assessed as induction of BRD4 long isoform degradation at 0.5 to 5 uM incubated for 24 hrs by Western blotting analysis; type: cell-based; conditions: dose 0.5-5 µM
# [2] = target: T1, Speckle-type POZ protein-Bromodomain-containing protein 4; test: PROTAC activity at SPOP/BRD4-S in human HT-29 cells assessed as induction of BRD4 short isoform degradation at 0.5 to 5 uM incubated for 24 hrs by Western blotting analysis; type: cell-based; conditions: dose 0.5-5 µM
# [3] = target: T2, Bromodomain-containing protein 4 (Homo sapiens, UniProt O60885); test: Binding affinity to BRD4-BD2 domain (unknown origin) assessed as assessed as dissociation constant by ITC analysis
# [4] = target: T1, Speckle-type POZ protein-Bromodomain-containing protein 4; test: PROTAC activity at SPOP/BRD4-S in human HT-29 cells assessed as induction of BRD4 short isoform degradation by measuring maximal efficacy at 0.156 to 10 uM incubated for 24 hrs by Western blotting analysis relative to control; type: cell-based; conditions: dose 0.156-10 µM
# [5] = target: T1, Speckle-type POZ protein-Bromodomain-containing protein 4; test: PROTAC activity at SPOP/BRD4-L in human HT-29 cells assessed as induction of BRD4 long isoform degradation by measuring fold change at 0.156 uM incubated for 24 hrs by Western blotting analysis (reference value: 1.00); type: cell-based
# [6] = target: T1, Speckle-type POZ protein-Bromodomain-containing protein 4; test: PROTAC activity at SPOP/BRD4-L in human HT-29 cells assessed as induction of BRD4 long isoform degradation by measuring fold change at 2.5 uM incubated for 24 hrs by Western blotting analysis (reference value: 1.00); type: cell-based
# [7] = target: T1, Speckle-type POZ protein-Bromodomain-containing protein 4; test: PROTAC activity at SPOP/BRD4-L in human HT-29 cells assessed as induction of BRD4 long isoform degradation by measuring fold change at 5 uM incubated for 24 hrs by Western blotting analysis (reference value: 1.00); type: cell-based
# [8] = target: T1, Speckle-type POZ protein-Bromodomain-containing protein 4; test: PROTAC activity at SPOP/BRD4-L in human HT-29 cells assessed as induction of BRD4 long isoform degradation by measuring fold change at 10 uM incubated for 24 hrs by Western blotting analysis (reference value: 1.00); type: cell-based
# [9] = target: T1, Speckle-type POZ protein-Bromodomain-containing protein 4; test: PROTAC activity at SPOP/BRD4-S in human HT-29 cells assessed as induction of BRD4 short isoform degradation by measuring fold change at 0.625 uM incubated for 24 hrs by Western blotting analysis (reference value: 1.00); type: cell-based
# [10] = target: T1, Speckle-type POZ protein-Bromodomain-containing protein 4; test: PROTAC activity at SPOP/BRD4-S in human HT-29 cells assessed as induction of BRD4 short isoform degradation by measuring fold change at 2.5 uM incubated for 24 hrs by Western blotting analysis (reference value: 1.00); type: cell-based
# [11] = target: T3, Speckle-type POZ protein-Bromodomain-containing protein 3 (Homo sapiens) (UniProt Q15059+O43791); test: PROTAC activity at SPOP/BRD3 in human HT-29 cells assessed as induction of BRD3 degradation by measuring fold change at 0.156 uM incubated for 24 hrs by Western blot analysis (reference value: 1.00); type: cell-based
# [12] = target: T3, Speckle-type POZ protein-Bromodomain-containing protein 3 (Homo sapiens); test: PROTAC activity at SPOP/BRD3 in human HT-29 cells assessed as induction of BRD3 degradation by measuring fold change at 2.5 uM incubated for 24 hrs by Western blot analysis (reference value: 1.00); type: cell-based
# [13] = target: T4, Speckle-type POZ protein-Bromodomain-containing protein 2 (Homo sapiens) (UniProt P25440+O43791); test: PROTAC activity at SPOP/BRD2 in human HT-29 cells assessed as induction of BRD2 degradation by measuring fold change at 0.156 uM incubated for 24 hrs by Western blot analysis (reference value: 1.00); type: cell-based
# [14] = target: T4, Speckle-type POZ protein-Bromodomain-containing protein 2 (Homo sapiens); test: PROTAC activity at SPOP/BRD2 in human HT-29 cells assessed as induction of BRD2 degradation by measuring fold change at 0.313 uM incubated for 24 hrs by Western blot analysis (reference value: 1.00); type: cell-based
# [15] = target: T4, Speckle-type POZ protein-Bromodomain-containing protein 2 (Homo sapiens); test: PROTAC activity at SPOP/BRD2 in human HT-29 cells assessed as induction of BRD2 degradation by measuring fold change at 0.625 uM incubated for 24 hrs by Western blot analysis (reference value: 1.00); type: cell-based
# [16] = target: T4, Speckle-type POZ protein-Bromodomain-containing protein 2 (Homo sapiens); test: PROTAC activity at SPOP/BRD2 in human HT-29 cells assessed as induction of BRD2 degradation by measuring fold change at 10 uM incubated for 24 hrs by Western blot analysis (reference value: 1.00); type: cell-based
# [17] = target: T2, Bromodomain-containing protein 4; test: Inhibition of BRD4 in human HT-29 cells assessed as decrease in c-MYC protein level by measuring fold change at 0.313 uM incubated for 24 hrs by Western blot analysis (reference value: 1.00); type: cell-based
# [18] = target: T2, Bromodomain-containing protein 4; test: Inhibition of BRD4 in human HT-29 cells assessed as decrease in c-MYC protein level by measuring fold change at 0.625 uM incubated for 24 hrs by Western blot analysis (reference value: 1.00); type: cell-based
# [19] = target: T1, Speckle-type POZ protein-Bromodomain-containing protein 4; test: PROTAC activity at SPOP/BRD4-S in human HT-29 cells assessed as induction of BRD4 short isoform degradation at 5 uM measured after 16 to 72 hrs by Western blotting analysis; type: cell-based; conditions: time 16-72 hrs
# [20] = target: T3, Speckle-type POZ protein-Bromodomain-containing protein 3 (Homo sapiens); test: PROTAC activity at SPOP/BRD3 in human HT-29 cells assessed as induction of BRD3 degradation at 5 uM measured after >=48 hrs by Western blot analysis; type: cell-based
# [21] = target: T4, Speckle-type POZ protein-Bromodomain-containing protein 2 (Homo sapiens); test: PROTAC activity at SPOP/BRD2 in human HT-29 cells assessed as induction of BRD2 degradation at 5 uM measured after >=48 hrs by Western blot analysis; type: cell-based
# [22] = target: T2, Bromodomain-containing protein 4; test: Inhibition of BRD4 in human HT-29 cells assessed as decrease in c-MYC protein level at 5 uM measured after 2 hrs by Western blot analysis; type: cell-based
# [23] = target: T1, Speckle-type POZ protein-Bromodomain-containing protein 4; test: PROTAC activity at SPOP/BRD4-S in human HT-29 cells assessed as induction of BRD4 short isoform degradation at 5 uM by Western blotting analysis; type: cell-based; conditions: time 2-72 hrs
# HT-29 = test: Effect on BRD4 long isoform mRNA level in human HT-29 cells at 1 to 10 uM incubated for 24 hrs by RT-qPCR analysis; type: functional, cell-based; conditions: dose 1-10 µM
# [24] = target: T3, Speckle-type POZ protein-Bromodomain-containing protein 3 (Homo sapiens); test: PROTAC activity at SPOP/BRD3 in human MDA-MB-231 cells assessed as induction of BRD3 degradation at 0.1 to 5 uM incubated for 24 hrs by Western blot analysis; type: cell-based; conditions: dose 0.1-5 µM
# [25] = target: T4, Speckle-type POZ protein-Bromodomain-containing protein 2 (Homo sapiens); test: PROTAC activity at SPOP/BRD2 in human MDA-MB-231 cells assessed as induction of BRD2 degradation at 0.1 to 5 uM incubated for 24 hrs by Western blot analysis; type: cell-based; conditions: dose 0.1-5 µM
# [26] = target: T1, Speckle-type POZ protein-Bromodomain-containing protein 4; test: PROTAC activity at SPOP/BRD4-S in human HT-29 cells assessed as induction of BRD4 short isoform degradation at 5 uM preincubated with MS1262 for 2 hrs followed by compound addition and measured after 24 hrs by Western blot analysis; type: cell-based
# [27] = target: T1, Speckle-type POZ protein-Bromodomain-containing protein 4; test: PROTAC activity at SPOP/BRD4-S in human HT-29 cells assessed as induction of BRD4 short isoform degradation at 5 uM preincubated with MLN4924 for 2 hrs followed by compound addition and measured after 24 hrs by Western blot analysis; type: cell-based
# T4 sequence (O43791 whole entry, looked up): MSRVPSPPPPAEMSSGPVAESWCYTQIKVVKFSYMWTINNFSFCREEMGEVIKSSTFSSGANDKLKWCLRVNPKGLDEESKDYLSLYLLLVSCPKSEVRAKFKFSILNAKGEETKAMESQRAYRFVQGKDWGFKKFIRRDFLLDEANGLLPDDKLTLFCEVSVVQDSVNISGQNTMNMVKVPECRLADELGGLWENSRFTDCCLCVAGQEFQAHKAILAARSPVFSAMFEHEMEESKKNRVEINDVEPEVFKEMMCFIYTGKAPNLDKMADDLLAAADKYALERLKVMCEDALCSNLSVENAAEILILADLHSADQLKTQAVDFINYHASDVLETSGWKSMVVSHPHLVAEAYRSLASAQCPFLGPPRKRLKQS
# T4 sequence (P25440 whole entry, looked up): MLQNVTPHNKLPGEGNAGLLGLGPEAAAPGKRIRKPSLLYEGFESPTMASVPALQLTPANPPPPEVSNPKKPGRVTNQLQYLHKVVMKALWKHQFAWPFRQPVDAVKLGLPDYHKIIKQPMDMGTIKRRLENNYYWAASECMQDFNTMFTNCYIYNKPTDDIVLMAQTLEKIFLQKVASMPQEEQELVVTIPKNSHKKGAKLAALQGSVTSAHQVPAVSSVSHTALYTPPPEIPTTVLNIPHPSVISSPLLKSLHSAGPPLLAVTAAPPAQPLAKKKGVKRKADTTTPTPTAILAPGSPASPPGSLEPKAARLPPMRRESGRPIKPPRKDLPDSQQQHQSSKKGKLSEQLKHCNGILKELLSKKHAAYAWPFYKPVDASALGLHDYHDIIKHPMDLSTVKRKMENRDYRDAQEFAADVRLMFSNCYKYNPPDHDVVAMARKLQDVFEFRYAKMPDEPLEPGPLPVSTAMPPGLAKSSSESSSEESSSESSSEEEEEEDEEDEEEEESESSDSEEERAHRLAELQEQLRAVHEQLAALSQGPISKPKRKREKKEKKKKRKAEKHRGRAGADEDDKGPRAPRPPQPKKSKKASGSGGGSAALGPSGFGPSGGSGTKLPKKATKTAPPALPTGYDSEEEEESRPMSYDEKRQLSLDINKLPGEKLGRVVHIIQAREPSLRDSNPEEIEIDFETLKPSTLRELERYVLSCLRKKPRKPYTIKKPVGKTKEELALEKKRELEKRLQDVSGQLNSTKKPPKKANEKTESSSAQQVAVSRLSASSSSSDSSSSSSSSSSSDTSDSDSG
# T1 sequence (O43791 whole entry, looked up, other chains not shown, canonical isoform): as the sequence (O43791 whole entry, looked up) above
# T3 sequence (O43791 whole entry, looked up): as above
# T3 sequence (Q15059 whole entry, looked up): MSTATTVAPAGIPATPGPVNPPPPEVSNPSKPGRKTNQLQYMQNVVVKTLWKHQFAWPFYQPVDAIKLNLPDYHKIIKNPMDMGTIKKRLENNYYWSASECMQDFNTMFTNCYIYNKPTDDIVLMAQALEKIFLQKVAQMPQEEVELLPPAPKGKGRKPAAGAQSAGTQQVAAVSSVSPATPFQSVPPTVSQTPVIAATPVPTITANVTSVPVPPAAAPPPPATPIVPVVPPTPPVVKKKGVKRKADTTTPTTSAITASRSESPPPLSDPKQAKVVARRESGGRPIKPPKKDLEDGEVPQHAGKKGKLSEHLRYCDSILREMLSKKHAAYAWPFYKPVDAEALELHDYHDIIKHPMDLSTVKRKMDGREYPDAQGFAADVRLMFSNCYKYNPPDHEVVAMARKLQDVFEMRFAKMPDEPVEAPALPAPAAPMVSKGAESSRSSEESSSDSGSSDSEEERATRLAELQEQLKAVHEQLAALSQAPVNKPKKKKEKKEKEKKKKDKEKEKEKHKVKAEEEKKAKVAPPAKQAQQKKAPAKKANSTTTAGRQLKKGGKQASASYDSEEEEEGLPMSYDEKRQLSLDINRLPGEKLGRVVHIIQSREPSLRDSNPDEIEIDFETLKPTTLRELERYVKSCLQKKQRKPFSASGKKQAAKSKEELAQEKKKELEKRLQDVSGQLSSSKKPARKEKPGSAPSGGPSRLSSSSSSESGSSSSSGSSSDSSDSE
smiles,measurement,setting,value
COc1cc2c(NC3CCN(CCCC(=O)NCCCCCCCCCCNC(=O)C[C@@H]4N=C(c5ccc(Cl)cc5)c5c(sc(C)c5C)-n5c(C)nnc54)CC3)cc(N3CCOCC3)nc2cc1OCCCN1CCCC1,Activity,[1],inactive
same,Activity,[2],Active
same,Kd,[3],200 nM
same,Emax,[4],63%
same,fold change (FC),[5],1.2
same,fold change (FC),[6],1.2
same,fold change (FC),[7],0.7
same,fold change (FC),[8],0.6
same,fold change (FC),[9],0.9
same,fold change (FC),[10],0.5
same,fold change (FC),[11],1
same,fold change (FC),[12],0.7
same,fold change (FC),[13],1.3
same,fold change (FC),[14],1.2
same,fold change (FC),[15],1.1
same,fold change (FC),[16],0.7
same,fold change (FC),[17],1
same,fold change (FC),[18],0.7
same,Activity,[19],Active
same,Activity,[20],Active
same,Activity,[21],Active
same,inhibition,[22],Active
same,Activity,[23],Time-dependent-effect
same,Activity,HT-29,inactive
same,Activity,[24],Active
same,Activity,[25],Active
same,Activity,[26],inactive
same,Activity,[27],inactive
